The series has as its system tumour subjects planned to receive highly emetogenic chemotherapy for the first time. Nature of the series: Example 4: active-controlled dose-finding study of compound 1 injection for the prevention of chemotherapy-induced nausea and vomiting (CINV). Type of series: in vivo, patients. On the procedure:
Study period: Treatment duration: Within 120 h after the first administration of highly emetogenic chemotherapeutic agents; Follow-up duration: Day 10 ± 1 after the first administration of highly emetogenic chemotherapeutic agents.
Protocol: This study was a multicentre, randomised, double-blind, active-controlled study. About 180 tumour subjects planned to receive highly emetogenic chemotherapy for the first time were randomised in a 1 : 1 : 1 ratio to three groups, with 60 subjects per group. Pre-chemotherapy study drug administration was completed 30 ± 10 min before the start of administration of the highly emetogenic chemotherapeutic agents. The dosing regimen was as follows: administration was performed in the following order: • 1) Compound 1 (placebo)/compound 1: A single dose was administered 30 ± 10 min before the start of administration of highly emetogenic chemotherapeutic agents, via intravenous bolus injection, with an intravenous bolus injection time of not less than 30 s. • 2) Dolasetron mesylate injection/dolasetron mesylate injection matching placebo: After the administration of compound 1/compound 1 (placebo), 5 ml (100 mg) of dolasetron mesylate injection/matching placebo was administered via intravenous bolus injection without dilution, and the infusion line was flushed with normal saline before and after administration. […]

As for `CC(=O)N1CC2(CCN(C(=O)[C@@H](CCCCN)NC(=O)[C@@H](CC(C)C)NC(=O)[C@@H](Cc3ccccc3)NC(=O)[C@H](N)Cc3ccccc3)CC2)C1` [Compound 1, (2R)-N-[(1R)-1-(2-acetyl-2,7-diazaspiro[3.5]nonane-7-carbonyl)-5-amino-pentyl]-2-[[(2R)-2-[[(2R)-2-amino-3-phenyl-propionyl]amino]-3-phenylpropionyl]amino]-4-methyl-pentanamide], for the setting “Example 4”, the overall safety result is recorded as “good overall safety”. Where the note is “Example 4, with dolasetron/aprepitant/dexamethasone background regimens”, the “effect on CINV” value is “preventive and/or ameliorating effect on CINV”.

The values are drawn from patent EP4792822A1, “USE OF PEPTIDE AMIDE COMPOUND IN PREPARATION OF DRUG FOR […] AND VOMITING” (Haisco Pharmaceutical Group Co., Ltd., priority 2023, dated 2025).
